Source: BindingDB's records for doi:10.1021/bi00407a006 (Enscp, 1988)

Target: T1, Glutamine--fructose-6-phosphate aminotransferase [isomerizing] (Escherichia coli (strain K12), UniProt P17169)
T1 sequence (P17169 whole entry): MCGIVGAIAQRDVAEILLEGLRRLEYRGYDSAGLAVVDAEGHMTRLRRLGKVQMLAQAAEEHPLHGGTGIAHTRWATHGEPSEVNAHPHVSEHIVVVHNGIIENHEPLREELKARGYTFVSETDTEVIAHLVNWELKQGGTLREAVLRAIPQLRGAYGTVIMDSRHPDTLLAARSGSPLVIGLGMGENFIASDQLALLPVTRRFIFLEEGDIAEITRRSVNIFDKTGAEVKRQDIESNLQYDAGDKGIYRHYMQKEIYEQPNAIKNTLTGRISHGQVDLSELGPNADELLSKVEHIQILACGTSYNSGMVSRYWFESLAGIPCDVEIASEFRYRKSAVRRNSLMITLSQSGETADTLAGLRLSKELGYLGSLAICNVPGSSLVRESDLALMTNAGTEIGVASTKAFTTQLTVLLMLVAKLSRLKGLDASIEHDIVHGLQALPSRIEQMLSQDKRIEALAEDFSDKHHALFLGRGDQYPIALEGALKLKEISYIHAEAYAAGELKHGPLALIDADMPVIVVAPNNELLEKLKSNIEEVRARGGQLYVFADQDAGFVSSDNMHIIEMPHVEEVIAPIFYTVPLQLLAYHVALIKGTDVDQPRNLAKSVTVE

Row | SMILES | Ki [nM]
1 | COC(=O)/C=C/C(=O)NC[C@H](N)C(=O)O [(2S)-2-azaniumyl-3-[[(E)-4-methoxy-4-oxobut-2-enoyl]amino]propanoate] | 350
2 | N[C@@H](CNC(=O)/C=C/C(=O)O)C(=O)O [(E)-4-[[(2S)-2-azaniumyl-2-carboxylatoethyl]amino]-4-oxobut-2-enoate] | 55100
3 | N#[N+][CH-]C(=O)CC[C@H](N)C(=O)NCC(=O)O [(Z,5S)-5-amino-6-(carboxymethylamino)-1-diazonio-6-oxohex-1-en-2-olate] | 1400
